Measured values as given in PubChem BioAssay AID330 (DTP/NCI, 2004).
Where “and” joins values, the source holds several entries; their conditions need not be identical. Identical values can stand only once. Toxic doses and inconclusive results are not listed. How the source made its calls: active means survival T/C of 150% or more; inactive means T/C below 125% in these data. Peptide text beside a SMILES is read from it. * marks the point of attachment. Cbz = O=C(OCc1ccccc1)*; Bn = c1ccc(C*)cc1

Test system: P388 leukemia ip, CD2F1 mice, survival T/C
Experiment: NCI In Vivo Anticancer Drug Screen. Data for tumor model P388 Leukemia (intraperitoneal) in CD2F1 (CDF1) mice
Details: endpoint: median survival time, higher = longer survival
Summary of the method: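 Mice carrying the transplanted tumor received test compound or vehicle. Survival was recorded in each group, and the value is the treated-group measurement divided by that of the vehicle-treated control group.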

[1] = dose: 12.5 mg/kg/injection, schedule: Q01DX009 (ip), vehicle: saline
[2] = dose: 25.0 mg/kg/injection, schedule: Q01DX009 (ip), vehicle: saline
[3] = dose: 50.0 mg/kg/injection, schedule: Q01DX009 (ip), vehicle: saline
[4] = dose: 12.5 mg/kg/injection, schedule: Q01DX009 (ip), vehicle: saline with Tween-80
[5] = dose: 25.0 mg/kg/injection, schedule: Q01DX009 (ip), vehicle: saline with Tween-80
[6] = dose: 50.0 mg/kg/injection, schedule: Q01DX009 (ip), vehicle: saline with Tween-80
[7] = dose: 100.0 mg/kg/injection, schedule: Q01DX009 (ip), vehicle: saline with Tween-80
[8] = dose: 60.0 mg/kg/injection, schedule: Q01DX005 (ip), vehicle: saline with Tween-80
[9] = dose: 120.0 mg/kg/injection, schedule: Q01DX005 (ip), vehicle: saline with Tween-80
[10] = dose: 240.0 mg/kg/injection, schedule: Q01DX005 (ip), vehicle: saline with Tween-80
[11] = dose: 50.0 mg/kg/injection, schedule: Q01DX005 (ip), vehicle: saline with Tween-80
[12] = dose: 100.0 mg/kg/injection, schedule: Q01DX005 (ip), vehicle: saline with Tween-80
[13] = dose: 200.0 mg/kg/injection, schedule: Q01DX005 (ip), vehicle: saline with Tween-80
[14] = dose: 50.0 mg/kg/injection, schedule: Q01DX005 (ip), vehicle: Klucel (hydroxypropylcellulose) (HPC)
[15] = dose: 100.0 mg/kg/injection, schedule: Q01DX005 (ip), vehicle: Klucel (hydroxypropylcellulose) (HPC)
[16] = dose: 200.0 mg/kg/injection, schedule: Q01DX005 (ip), vehicle: Klucel (hydroxypropylcellulose) (HPC)
[17] = dose: 200.0 mg/kg/injection, schedule: Q01DX009 (ip), vehicle: saline with Tween-80
[18] = dose: 100.0 mg/kg/injection, schedule: Q01DX009 (ip), vehicle: saline
[19] = dose: 200.0 mg/kg/injection, schedule: Q01DX009 (ip), vehicle: saline
[20] = dose: 60.0 mg/kg/injection, schedule: Q01DX005 (ip), vehicle: Klucel (hydroxypropylcellulose) (HPC)
[21] = dose: 120.0 mg/kg/injection, schedule: Q01DX005 (ip), vehicle: Klucel (hydroxypropylcellulose) (HPC)
[22] = dose: 240.0 mg/kg/injection, schedule: Q01DX005 (ip), vehicle: Klucel (hydroxypropylcellulose) (HPC)

Measured: T/C

CN1CC[C@]23c4c5ccc(O)c4O[C@H]2C(=O)CC[C@H]3[C@H]1C5
inactive: dose: 12.5 mg/kg/injection, schedule: Q01DX005 (iv), vehicle: saline 99 % of control and 102 % of control | [1] 108 % of control | dose: 25.0 mg/kg/injection, schedule: Q01DX005 (iv), vehicle: saline 102 % of control and 106 % of control | [2] 111 % of control | dose: 50.0 mg/kg/injection, schedule: Q01DX005 (iv), vehicle: saline 99 % of control and 102 % of control | [3] 103 % of control and 97 % of control | dose: 100.0 mg/kg/injection, schedule: Q01DX005 (iv), vehicle: saline 101 % of control | dose: 200.0 mg/kg/injection, schedule: Q01DX005 (iv), vehicle: saline 102 % of control

CCC[CH2][Sn]([CH2]CCC)([O]C(=O)/C=C/c1ccccc1)[O]C(=O)/C=C/c1ccccc1
inactive: dose: 1.56 mg/kg/injection, schedule: Q04DX003 (ip), vehicle: DMSO 87 % of control | dose: 3.12 mg/kg/injection, schedule: Q04DX003 (ip), vehicle: DMSO 89 % of control | dose: 6.25 mg/kg/injection, schedule: Q04DX003 (ip), vehicle: DMSO 89 % of control | dose: 12.5 mg/kg/injection, schedule: Q04DX003 (ip), vehicle: saline with Tween-80 117 % of control

COC(=O)/C=C/NC(=O)c1ccccc1C(=O)OC
inactive: dose: 25.0 mg/kg/injection, schedule: Q01DX009 (ip), vehicle: suspension in saline 98 % of control | dose: 50.0 mg/kg/injection, schedule: Q01DX009 (ip), vehicle: suspension in saline 100 % of control | dose: 100.0 mg/kg/injection, schedule: Q01DX009 (ip), vehicle: suspension in saline 100 % of control | dose: 200.0 mg/kg/injection, schedule: Q01DX009 (ip), vehicle: suspension in saline 100 % of control

CC(C)C1OC(=O)/C=C/C=C/C=C/C=C/C=C/CC(O)C(C)C(O)CC(O)CC(O)CC(O)CC(O)CC(O)CC(O)/C=C/C1C (stereo unspecified)
inactive: dose: 1.56 mg/kg/injection, schedule: Q01DX009 (ip), vehicle: saline 100 % of control | dose: 3.12 mg/kg/injection, schedule: Q01DX009 (ip), vehicle: saline 96 % of control | dose: 6.25 mg/kg/injection, schedule: Q01DX009 (ip), vehicle: saline 102 % of control and 92 % of control

S=C(S)NN1CCCC1
inactive: [4] 100 % of control | [5] 100 % of control | [6] 100 % of control

COC(=O)C(C#N)c1ccccn1 (stereo unspecified)
inactive: [6] 96 % of control | [7] 100 % of control

COC(=O)c1cc(-c2ccc(OC)cc2)c2c(=O)n(-c3ccccc3)[nH]c2n1
inactive: [8] 101 % of control | [9] 99 % of control | [10] 94 % of control

CC(C)CC(NC(=O)C(CSCc1ccccc1)NC(=O)OCc1ccccc1)C(N)=O (stereo unspecified) (Cbz-Cys(Bn)-Leu-NH2; configuration not given here)
inactive: dose: 6.25 mg/kg/injection, schedule: Q01DX005 (ip), vehicle: Klucel (hydroxypropylcellulose) (HPC) 102 % of control | dose: 12.5 mg/kg/injection, schedule: Q01DX005 (ip), vehicle: Klucel (hydroxypropylcellulose) (HPC) 86 % of control | dose: 25.0 mg/kg/injection, schedule: Q01DX005 (ip), vehicle: Klucel (hydroxypropylcellulose) (HPC) 86 % of control

O=C(O)C(O)C(F)(F)C(F)(F)C(F)(F)F (stereo unspecified)
inactive: [11] 97 % of control | [12] 94 % of control | [13] 88 % of control

O=C(NC(Cc1ccccc1)C(=O)O)c1ccc([N+](=O)[O-])cc1 (stereo unspecified)
inactive: dose: 25.0 mg/kg/injection, schedule: Q01DX009 (ip), vehicle: other 97 % of control | dose: 50.0 mg/kg/injection, schedule: Q01DX009 (ip), vehicle: other 89 % of control | dose: 100.0 mg/kg/injection, schedule: Q01DX009 (ip), vehicle: other 104 % of control

CN(/N=C\c1ccccc1)C(N)=S
inactive: [14] 105 % of control | [15] 111 % of control | [16] 101 % of control

[Se]c1nc(N2CCOCC2)ncc1-c1ccccc1
inactive: dose: 6.25 mg/kg/injection, schedule: Q01DX009 (ip), vehicle: saline with Tween-80 100 % of control | [4] 95 % of control | [5] 95 % of control | [17] 92 % of control

COc1cc2nc3cc([N+](=O)[O-])ccc3c(Cl)c2cc1OC
inactive: [11] 99 % of control | [12] 101 % of control | [13] 89 % of control

CCN=C(N)N=C(N)N
inactive: dose: 25.0 mg/kg/injection, schedule: Q01DX001 (ip), vehicle: saline 108 % of control | dose: 50.0 mg/kg/injection, schedule: Q01DX001 (ip), vehicle: saline 87 % of control | [3] 100 % of control | dose: 100.0 mg/kg/injection, schedule: Q01DX001 (ip), vehicle: saline 87 % of control | [18] 107 % of control | [19] 98 % of control

O=NN(C(=O)NC1CCC(O)CC1)C1CCC(O)CC1 (stereo unspecified)
inactive: dose: 25.0 mg/kg/injection, schedule: Q01DX001 (ip), vehicle: distilled water + Tween-80 102 % of control | dose: 50.0 mg/kg/injection, schedule: Q01DX001 (ip), vehicle: distilled water + Tween-80 99 % of control | dose: 100.0 mg/kg/injection, schedule: Q01DX001 (ip), vehicle: distilled water + Tween-80 106 % of control | dose: 200.0 mg/kg/injection, schedule: Q01DX001 (ip), vehicle: distilled water + Tween-80 101 % of control

CN(Cc1ccc2nc(N)[nH]c(=O)c2c1)c1ccc(C(=O)NC(CCC(=O)O)C(=O)O)cc1 (stereo unspecified)
inactive: [11] 95 % of control | [12] 102 % of control

Cc1cnc2ccc(O)cc2c1CO
inactive: dose: 100.0 mg/kg/injection, schedule: Q04DX002 (ip), vehicle: saline with Tween-80 92 % of control | dose: 200.0 mg/kg/injection, schedule: Q04DX002 (ip), vehicle: saline with Tween-80 94 % of control | dose: 400.0 mg/kg/injection, schedule: Q04DX002 (ip), vehicle: saline with Tween-80 93 % of control

Cc1ncc[nH]1
inactive: [3] 90 % of control | [18] 92 % of control | [19] 89 % of control

Nc1nnc(Cc2ccc(Br)cc2)o1
inactive: [8] 98 % of control | [9] 97 % of control | [10] 100 % of control

CCOP(=O)(CC1OCC2(CO1)COC(CP(=O)(OCC)OCC)OC2)OCC (stereo unspecified)
inactive: [1] 87 % of control | [2] 94 % of control | [3] 101 % of control and 92 % of control | [18] 106 % of control | [19] 100 % of control

N#CC1=C(Nc2ccccc2Cl)SC(c2c(Cl)cccc2Cl)NC1=O (stereo unspecified)
inactive: [20] 90 % of control | [21] 100 % of control | [22] 93 % of control

O=[N+]([O-])c1ccccc1N=Nc1c(O)sc2ccccc12
inactive: [14] 98 % of control | [15] 96 % of control | [16] 91 % of control

Cc1cc(O)cc(=O)n1CCc1ccccc1
inactive: [20] 88 % of control | [21] 94 % of control | [22] 96 % of control

Cc1cc(CC(C)O)n[nH]1 (stereo unspecified)
inactive: dose: 50.0 mg/kg/injection, schedule: Q01DX009 (ip), vehicle: Klucel (hydroxypropylcellulose) (HPC) 109 % of control | dose: 100.0 mg/kg/injection, schedule: Q01DX009 (ip), vehicle: Klucel (hydroxypropylcellulose) (HPC) 106 % of control | dose: 200.0 mg/kg/injection, schedule: Q01DX009 (ip), vehicle: Klucel (hydroxypropylcellulose) (HPC) 102 % of control

O=C(Nc1ccc2c(c1)Cc1ccccc1-2)c1cccc2ccccc12
inactive: dose: 0.75 mg/kg/injection, schedule: Q01DX005 (ip), vehicle: saline with Tween-80 96 % of control | dose: 1.5 mg/kg/injection, schedule: Q01DX005 (ip), vehicle: saline with Tween-80 96 % of control | dose: 3.0 mg/kg/injection, schedule: Q01DX005 (ip), vehicle: saline with Tween-80 89 % of control | [13] 90 % of control

CCOC(CN=Cc1cc(C)c2oc3ccccc3c2c1C)OCC
inactive: [6] 100 % of control | [7] 100 % of control | [17] 95 % of control
